Measurements taken from ChEMBL document CHEMBL2073906, “Interactions of ofloxacin and erythromycin with the multidrug resistance protein (MRP) in MRP-overexpressing human leukemia cells” (Antimicrob Agents Chemother, 2000).

Tests used:
[1] = biological target: T1, Multidrug resistance-associated protein 1 (Homo sapiens, UniProt P33527); assay: TP_TRANSPORTER: increase in Vincristine intracellular accumulation (Vincristine: 0.03 uM, Erythromycin: 14.7 mg/mL) in HL60R cells: flow cytometric analysis; type: functional, cell-based
[2] = biological target: T1, Multidrug resistance-associated protein 1; assay: TP_TRANSPORTER: increase in Vincristine intracellular accumulation (Vincristine: 0.03 uM, Ofloxacin: 21.7 mg/mL) in HL60R cells: flow cytometric analysis; type: functional, cell-based

T1 sequence (P33527 whole entry): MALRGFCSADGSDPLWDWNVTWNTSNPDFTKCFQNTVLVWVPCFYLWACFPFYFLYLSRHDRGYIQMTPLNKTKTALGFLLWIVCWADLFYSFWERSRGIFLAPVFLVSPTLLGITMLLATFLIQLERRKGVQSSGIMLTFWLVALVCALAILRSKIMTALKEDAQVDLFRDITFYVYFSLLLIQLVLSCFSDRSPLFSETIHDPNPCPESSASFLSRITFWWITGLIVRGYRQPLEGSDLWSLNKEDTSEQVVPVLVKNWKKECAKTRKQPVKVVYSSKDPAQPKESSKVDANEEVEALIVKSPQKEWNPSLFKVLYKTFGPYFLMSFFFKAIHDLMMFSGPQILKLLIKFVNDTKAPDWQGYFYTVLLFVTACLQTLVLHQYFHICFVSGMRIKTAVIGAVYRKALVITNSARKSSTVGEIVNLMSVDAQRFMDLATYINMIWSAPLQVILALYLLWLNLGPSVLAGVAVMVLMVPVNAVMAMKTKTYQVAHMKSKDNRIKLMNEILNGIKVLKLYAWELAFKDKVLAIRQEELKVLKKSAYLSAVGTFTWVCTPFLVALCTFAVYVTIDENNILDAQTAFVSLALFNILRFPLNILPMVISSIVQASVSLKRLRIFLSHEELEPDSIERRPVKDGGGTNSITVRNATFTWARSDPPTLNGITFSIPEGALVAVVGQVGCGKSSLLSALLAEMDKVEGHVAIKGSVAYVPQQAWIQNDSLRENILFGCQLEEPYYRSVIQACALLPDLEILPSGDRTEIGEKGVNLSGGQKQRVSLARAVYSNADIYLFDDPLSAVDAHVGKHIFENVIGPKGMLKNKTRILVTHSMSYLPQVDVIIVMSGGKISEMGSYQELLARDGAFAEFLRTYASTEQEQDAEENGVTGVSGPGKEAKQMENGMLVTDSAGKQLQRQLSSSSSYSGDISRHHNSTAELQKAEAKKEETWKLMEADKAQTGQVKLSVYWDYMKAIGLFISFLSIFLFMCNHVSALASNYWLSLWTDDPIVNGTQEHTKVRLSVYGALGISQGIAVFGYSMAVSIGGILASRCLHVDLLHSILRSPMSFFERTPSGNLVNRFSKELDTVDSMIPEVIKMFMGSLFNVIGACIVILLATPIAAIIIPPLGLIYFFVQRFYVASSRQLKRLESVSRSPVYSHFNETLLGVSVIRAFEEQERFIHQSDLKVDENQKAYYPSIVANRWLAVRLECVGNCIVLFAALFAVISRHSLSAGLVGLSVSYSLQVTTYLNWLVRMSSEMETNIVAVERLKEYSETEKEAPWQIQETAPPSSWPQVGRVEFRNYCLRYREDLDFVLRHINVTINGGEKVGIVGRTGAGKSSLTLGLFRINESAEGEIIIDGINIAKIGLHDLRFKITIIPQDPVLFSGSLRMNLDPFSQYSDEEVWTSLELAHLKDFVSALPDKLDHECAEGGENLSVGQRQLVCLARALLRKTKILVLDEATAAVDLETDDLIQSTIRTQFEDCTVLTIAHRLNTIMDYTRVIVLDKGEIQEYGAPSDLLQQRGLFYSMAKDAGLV

Row | Activity [1] | Activity [2] | Compound
1 | 0.16 | – | CC[C@H]1OC(=O)[C@H](C)[C@@H](O[C@H]2C[C@@](C)(OC)[C@@H](O)[C@H](C)O2)[C@H](C)[C@@H](O[C@@H]2O[C@H](C)C[C@H](N(C)C)[C@H]2O)[C@](C)(O)C[C@@H](C)C(=O)[C@H](C)[C@@H](O)[C@]1(C)O [ERYTHROMYCIN]
2 | – | 0.29 | CC1COc2c(N3CCN(C)CC3)c(F)cc3c(=O)c(C(=O)O)cn1c23 (configuration not stated) [OFLOXACIN]
